Active and inactive are the calls of the source. No cut-off for these calls is given here.
Columns and labels:
LAD2 [1] = assay: Cytotoxicity against human LAD2 cells assessed as reduction in cell viability at 10 uM incubated for 24 hrs by Cell Counting Kit assay; assay type: toxicity, cell-based; conditions: lad2, 24 h
LAD2 [2] = assay: Anti-pseudo allergic activity in human LAD2 cells assessed as inhibition of C48/80-induced beta-hexosaminidase release; assay type: functional, cell-based
LAD2 [3] = assay: Anti-pseudo allergic activity in human LAD2 cells assessed as inhibition of C48/80-induced beta-hexosaminidase release at 0.1 to 10 uM pretreated for 30 mins followed by C48/80 addition measured after 30 mins; assay type: functional, cell-based; conditions: dose 0.1-10 µM, time 1.0 hrs
LAD2 [4] = assay: Anti-pseudo allergic activity in human LAD2 cells assessed as inhibition of C48/80-induced histamine release at 0.1 to 10 uM pretreated for 30 mins followed by C48/80 addition measured after 30 mins by HPLC-MS analysis; assay type: functional, cell-based; conditions: dose 0.1-10 µM
Mus musculus [5] = assay: Anti-pseudo allergic activity against C48/80-induced passive cutaneous anaphylaxis C57 mouse model assessed as reduction in paw thickness rate at 0 to 1 mg/kg followed by C48/80 intravenously administration after 15 mins by Evans blue method; assay type: functional, organism-based; conditions: dose 0-1 mg/kg, route iv
Mus musculus [6] = assay: Anti-pseudo allergic activity against C48/80-induced passive cutaneous anaphylaxis mouse model assessed as increase in local tissue edema vascular permeability at 1 to 10 mg/kg followed by C48/80 administration after 30 mins post-compound administration measured every 5 mins for 30 mins; assay type: functional, organism-based; conditions: dose 1-10 mg/kg
[7] = target: T1, Mas-related G-protein coupled receptor member X2 (Homo sapiens) (UniProt Q96LB1); assay: Antagonist activity at MRGPRX2 (unknown origin) expressed in HEK293 cells assessed as inhibition of calcium mobilization at upto 10 uM; assay type: functional, cell-based; conditions: filed as antagonist
T1 sequence (whole entry): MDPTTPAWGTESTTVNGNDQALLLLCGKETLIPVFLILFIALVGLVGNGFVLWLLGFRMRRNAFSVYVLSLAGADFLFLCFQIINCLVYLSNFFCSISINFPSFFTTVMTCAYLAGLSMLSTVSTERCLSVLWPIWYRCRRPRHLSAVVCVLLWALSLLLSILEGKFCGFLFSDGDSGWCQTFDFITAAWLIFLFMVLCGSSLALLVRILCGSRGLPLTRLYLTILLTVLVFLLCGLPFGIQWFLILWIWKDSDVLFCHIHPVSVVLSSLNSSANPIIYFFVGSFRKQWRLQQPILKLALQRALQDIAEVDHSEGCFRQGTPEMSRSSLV

Mus musculus [8] = assay: Anti-pseudo allergic activity against C48/80-induced passive cutaneous anaphylaxis mouse model assessed as decrease in degranulation level at 0 to 1 mg/kg followed by C48/80 addition measured after 45 mins by FITC-avidin staining based laser scanning confocal microscopy; assay type: functional, organism-based; conditions: dose 0-1 mg/kg
HEK293 [9] = assay: Anti-pseudo allergic activity in HEK293 cells expressing H1R assessed as inhibition of histamine induced calcium release at 0 to 10 uM; assay type: functional, cell-based; conditions: Homo sapiens, dose 0-10 µM
Mus musculus [10] = assay: Anti-pseudo allergic activity against passive cutaneous anaphylaxis-induced C57 mouse model assessed as reduction in C48/80-induced extravasation rate at 0 to 1 mg/kg followed by C48/80 intravenously administration after 15 mins by Evans blue method; assay type: functional, organism-based; conditions: dose 0-1 mg/kg, route iv
LAD2 [11] = assay: Anti-pseudo allergic activity in human LAD2 cells assessed as decrease in C48/80-induced calcium intracellular mobilization at 10 uM by fluorescence based assay; assay type: functional, cell-based
Mus musculus [12] = assay: Anti-pseudo allergic activity against passive cutaneous anaphylaxis-induced mouse model assessed as systemic symptoms at 1 to 10 mg/kg followed by C48/80 administration after 30 mins post-compound administration measured every 5 mins for 30 mins; assay type: functional, organism-based; conditions: dose 1-10 mg/kg
Mus musculus [13] = assay: Anti-pseudo allergic activity against C48/80-induced passive cutaneous anaphylaxis mouse model assessed as body temperature loss at 10 mg/kg followed by C48/80 administration intravenously after 30 mins post-compound administration measured every 5 mins for 30 mins; assay type: functional, organism-based; conditions: route iv, time 1.0 hrs
HEK293 [14] = assay: Anti-pseudo allergic activity in HEK293 cells assessed as prevention of calcium entry in presence of emodin at 0 to 10 uM; assay type: functional, cell-based; conditions: Homo sapiens, dose 0-10 µM
Mus musculus [15] = assay: Anti-pseudo allergic activity against C48/80-induced passive cutaneous anaphylaxis mouse model assessed as reduction in serum histamine level at 1 to 10 mg/kg followed by C48/80 administration intravenously after 30 mins post-compound administration measured every 5 mins for 30 mins by LC/MS/MS analysis; assay type: functional, organism-based; conditions: dose 1-10 mg/kg, route iv

IC50 (LAD2 [2]) | Activity [7] | SMILES | Activity (LAD2 [1]) | Activity (LAD2 [3]) | inhibition (LAD2 [4]) | Activity (Mus musculus [5]) | Activity (Mus musculus [6]) | Activity (Mus musculus [8]) | Activity (HEK293 [9]) | Activity (Mus musculus [10]) | Activity (LAD2 [11]) | Activity (Mus musculus [12]) | Activity (Mus musculus [13]) | Activity (HEK293 [14]) | Activity (Mus musculus [15])
 |  | O=C(Nc1ccc(F)cc1)Nc1cc(Br)cc(C(F)(F)F)c1 | Non-Toxic |  |  |  |  |  |  |  |  |  |  |  | 
0.8 µM |  | O=C(Nc1ccc(C(F)(F)F)cc1)Nc1ccc(C(F)(F)F)cc1Cl | Non-Toxic | Active | Active |  |  |  |  |  |  |  |  |  | 
0.79 µM | Active | O=C(Nc1ccc(Cl)c(C(F)(F)F)c1)Nc1ccc(Cl)c(C(F)(F)F)c1 | Non-Toxic | Active | Active | Active | Active | Active | Active | Active | Active | Active | Active | Active | Active
1.1 µM |  | O=C(Nc1ccc(Cl)c(C(F)(F)F)c1)Nc1ccc(C(F)(F)F)cc1Cl |  | Active | Active |  |  |  |  |  |  |  |  |  | 
 |  | O=C(Nc1ccc(F)cc1)Nc1ccc(F)cc1 | Non-Toxic |  |  |  |  |  |  |  |  |  |  |  | 
 |  | O=C(Nc1ccc(Br)cc1)Nc1ccc(Br)cc1 | Non-Toxic |  |  |  |  |  |  |  |  |  |  |  | 
2.16 µM |  | O=C(Nc1ccc(C(F)(F)F)cc1Cl)Nc1ccc(C(F)(F)F)cc1Cl | Non-Toxic | Active | Active |  |  |  |  |  |  |  |  |  | 
1.4 µM |  | O=C(Nc1ccc(F)cc1)Nc1ccc(C(F)(F)F)cc1Cl | Non-Toxic | Active | Active |  |  |  |  |  |  |  |  |  | 
1.59 µM |  | O=C(Nc1cccc(C(F)(F)F)c1)Nc1cccc(C(F)(F)F)c1 | Non-Toxic | Active | Active |  |  |  |  |  |  |  |  |  | 
0.97 µM | Active | O=C(Nc1ccc(C(F)(F)F)cc1)Nc1ccc(C(F)(F)F)cc1 | Non-Toxic | Active | Active | Active | Active | Active | Active | Active | Active | Active | Active | Active | Active
0.62 µM | Active | O=C(Nc1ccc(C(F)(F)F)cc1)Nc1cc(Br)cc(C(F)(F)F)c1 | Non-Toxic | Active | Active | Active | Active | Active | Active | Active | Active | Active | Active | Active | Active
2.51 µM |  | O=C(Nc1ccc(Br)cc1)Nc1ccc(C(F)(F)F)cc1Cl | Non-Toxic | Active | Active |  |  |  |  |  |  |  |  |  | 
1.64 µM |  | O=C(Nc1ccc(F)cc1)Nc1ccc(C(F)(F)F)cc1 | Non-Toxic | Active | Active |  |  |  |  |  |  |  |  |  | 

Source: ChEMBL document CHEMBL5137071, “Convenient Diaryl Ureas as Promising Anti-pseudo-allergic Agents” (J Med Chem, 2022)
